Calls of active or inactive are those of the source. Cut-off read from the data, not from the text of the source, for most assays here: actives have a measured EC50 and inactives only a lower limit.
Assays:
[1] = target: Beta-2 adrenergic receptor (Homo sapiens, UniProt P07550); test: ADRB2 activation measured by internalization – cell-based, FAP fluorogen, flow cytometry, cherry pick 1, dose response (AID 588763); type: functional
[2] = NIH3T3 cell viability loss – ATP luminescence, mouse fibroblasts, counter-screen, dose response (AID 2010); type: functional, cell-based;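 note: cells exposed to compound for about 90 hours before reading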
[3] = Trypanosoma cruzi growth suppression in host cells – NIH3T3 host cells, beta-gal luminescence, confirmation (AID 2044); type: functional, cell-based;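 note: intracellular parasites grown in NIH/3T3 mouse fibroblasts as host cells; luminescent beta-galactosidase reporter signal from transgenic T. cruzi replicating inside host cells; inhibitors lower the luminescence signal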
[4] = target: Protein disulfide-isomerase (Homo sapiens, UniProt P07237); test: inhibition of PDI-driven insulin aggregation – biochemical, turbidity, absorbance, cherry-picked samples, dose response (AID 602350); type: functional
Protein disulfide-isomerase, sequence (P07237 whole entry): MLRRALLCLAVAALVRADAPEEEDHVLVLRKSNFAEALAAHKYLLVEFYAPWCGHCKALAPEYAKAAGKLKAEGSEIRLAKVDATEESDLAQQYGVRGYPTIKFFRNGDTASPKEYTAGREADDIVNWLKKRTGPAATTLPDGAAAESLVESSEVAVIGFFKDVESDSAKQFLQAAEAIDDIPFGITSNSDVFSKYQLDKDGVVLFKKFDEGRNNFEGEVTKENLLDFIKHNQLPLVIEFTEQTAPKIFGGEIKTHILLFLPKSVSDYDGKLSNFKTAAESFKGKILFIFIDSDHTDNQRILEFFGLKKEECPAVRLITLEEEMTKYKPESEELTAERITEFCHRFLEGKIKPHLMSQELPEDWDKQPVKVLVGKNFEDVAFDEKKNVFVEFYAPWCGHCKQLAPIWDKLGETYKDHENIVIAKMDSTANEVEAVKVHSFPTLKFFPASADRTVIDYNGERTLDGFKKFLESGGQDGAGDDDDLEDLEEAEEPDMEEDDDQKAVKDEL

[5] = luciferase reporter signal suppression in cells – H4 neuroglioma cells, luminescence, dose response (AID 1990); type: functional, cell-based
BJ [6] = test: cells; type: functional, cell-based; settings: Homo sapiens
BJ [7] = test: growth inhibition of engineered Ras-driven BJ cells – cell-based, alamar blue fluorescence, cherrypicked samples, dose response (AID 2631); type: functional; settings: Homo sapiens;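 note: confirmatory dose-response assay in RAS-dependent BJ fibroblasts engineered with TERT, LT and ST, with cytotoxicity read by fluorescence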
BJ [8] = test: BJ-TERT-LT-ST fibroblast viability loss – cell-based, RAS-independent, luminescence, dose response (AID 1935); type: functional; settings: Homo sapiens;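 note: BJ fibroblasts immortalized with TERT plus LT and ST oncogenes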
BJ [9] = test: BJ-TERT fibroblast viability loss – cell-based, RAS-independent, luminescence, dose response (AID 1933); type: functional; settings: Homo sapiens
[10] = Luminescence Cell-Based Dose Response HTS to Identify Inhibitors of 5'UTR Stem-Loop Driven Prion Protein mRNA Translation in H4 Neuroglioblastoma Cells. [Related pubchem assays: 1827 (Project Summary), 1813 (Primary HTS)]; type: functional
[11] = DRD fibroblast viability loss – cell-based, non-viral oncogenic, luminescence, dose response (AID 1934); type: functional; settings: Homo sapiens
[12] = alpha-synuclein stem-loop luciferase translation blockers – H4 neuroglioma cells, luminescence, confirmation (AID 1988); type: functional, cell-based
[13] = loss of viability in HepG2 cells – cell-based, CellTiter-Glo, cherry-picked, cytotoxicity control for Shn3 inhibitor project, dose response (AID 624134); type: functional
CHO = CHO cell viability loss, potency – luminescence, cytotoxicity control for TLR9-MyD88 binding inhibitor project, dose response (AID 588339); type: functional, cell-based, hamster; settings: Cricetulus griseus;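 note: CHO cells stably coexpressing TLR9 and MyD88 fusions from primary screen; compound exposure lasted 48 hours before viability readout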
Beta Lactamase = Beta Lactamase (Pseudomonas aeruginosa, UniProt Q932Y6); test: BLA reporter interference, concentration series – BLA reporter cells, FRET fluorescence, artefact control for TLR9-MyD88 binding inhibitor project, dose response (AID 588341); type: cell-based;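 note: cell based assay in CHO-K1 cells stably expressing beta-lactamase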
Beta Lactamase, sequence (Q932Y6 whole entry): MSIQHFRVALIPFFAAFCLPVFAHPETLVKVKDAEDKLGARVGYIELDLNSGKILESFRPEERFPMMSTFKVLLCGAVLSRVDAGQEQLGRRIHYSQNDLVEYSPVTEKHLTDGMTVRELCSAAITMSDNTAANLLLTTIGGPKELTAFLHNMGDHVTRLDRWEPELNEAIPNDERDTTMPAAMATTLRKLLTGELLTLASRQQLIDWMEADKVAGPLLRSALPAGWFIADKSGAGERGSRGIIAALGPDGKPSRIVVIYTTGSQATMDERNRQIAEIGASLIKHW

[14] = reduction of Shn3 3'UTR-driven luciferase in osteoblasts – cell-based, Clone20 osteoblasts, firefly luciferase, cherry-picked, dose response (AID 624132); type: functional;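 note: firefly luciferase luminescence from reporter carrying the Shn3 3'UTR in osteoblasts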
[15] = target: T1, Heat shock factor protein 1 (Mus musculus, UniProt P38532); test: enhancement of HSF1-driven luciferase signal – cell-based, NIH3T3, luminescence, dose retest, confirmation (AID 435004); type: functional;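 note: stress induced by proteasome inhibitor MG132 added 30 min after compound; luciferase reporter driven by HSF1 response element in NIH3T3 cells; actives raise luminescence as potentiators of the MG132 stress response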
T1 sequence (P38532 whole entry): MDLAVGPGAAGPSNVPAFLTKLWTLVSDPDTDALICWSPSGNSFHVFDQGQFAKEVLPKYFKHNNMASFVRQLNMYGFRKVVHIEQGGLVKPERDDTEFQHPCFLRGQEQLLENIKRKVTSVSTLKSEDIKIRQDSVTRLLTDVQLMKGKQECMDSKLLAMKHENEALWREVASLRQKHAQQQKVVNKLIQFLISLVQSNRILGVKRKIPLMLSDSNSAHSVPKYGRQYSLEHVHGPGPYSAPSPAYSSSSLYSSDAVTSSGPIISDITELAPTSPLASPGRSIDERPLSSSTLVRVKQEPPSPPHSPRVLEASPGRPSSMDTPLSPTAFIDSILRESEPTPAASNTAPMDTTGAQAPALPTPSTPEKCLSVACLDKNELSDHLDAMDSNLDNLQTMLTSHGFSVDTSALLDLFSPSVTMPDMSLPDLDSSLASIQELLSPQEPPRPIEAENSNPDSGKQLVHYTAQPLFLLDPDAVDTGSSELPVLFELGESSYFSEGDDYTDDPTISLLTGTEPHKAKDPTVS

[16] = target: T2, Corticotropin-releasing factor receptor 2/Corticotropin-releasing factor-binding protein (Homo sapiens, UniProt P24387+Q13324); test: activators of CRF receptor 2 with binding protein – uHTS hits, confirmation (AID 602473); type: functional; settings: read-out: EC50_Mean
T2 sequence (Q13324 whole entry): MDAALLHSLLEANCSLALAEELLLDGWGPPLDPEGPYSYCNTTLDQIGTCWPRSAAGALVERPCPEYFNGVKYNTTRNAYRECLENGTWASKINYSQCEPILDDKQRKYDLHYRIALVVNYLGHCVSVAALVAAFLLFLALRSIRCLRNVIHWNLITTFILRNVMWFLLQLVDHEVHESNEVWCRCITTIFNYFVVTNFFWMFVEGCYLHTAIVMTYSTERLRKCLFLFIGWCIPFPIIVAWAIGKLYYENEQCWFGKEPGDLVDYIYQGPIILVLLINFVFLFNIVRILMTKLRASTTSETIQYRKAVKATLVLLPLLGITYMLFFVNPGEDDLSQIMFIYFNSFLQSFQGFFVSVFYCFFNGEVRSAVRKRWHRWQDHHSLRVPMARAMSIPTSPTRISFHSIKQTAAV
T2 sequence (P24387 whole entry): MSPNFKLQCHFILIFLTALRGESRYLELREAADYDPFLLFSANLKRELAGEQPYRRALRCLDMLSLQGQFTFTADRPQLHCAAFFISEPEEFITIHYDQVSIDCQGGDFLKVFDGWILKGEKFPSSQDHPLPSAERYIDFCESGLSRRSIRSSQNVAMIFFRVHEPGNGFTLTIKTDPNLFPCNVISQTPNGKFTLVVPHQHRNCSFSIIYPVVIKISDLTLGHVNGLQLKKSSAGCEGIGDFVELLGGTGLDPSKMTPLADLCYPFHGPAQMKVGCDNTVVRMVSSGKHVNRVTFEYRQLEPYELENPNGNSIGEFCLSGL

Fatty acid synthase [17] = target: T3, Fatty acid synthase (Homo sapiens, UniProt P49327); test: inhibition of human FAS-TE enzyme activity – biochemical, kinetic fluorescence intensity, dose response (AID 624326); type: functional;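 note: rate of fluorescence rise from hydrolysis of a fluorogenic O-methyl fluorescein ester substrate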
T3 sequence (P49327 whole entry): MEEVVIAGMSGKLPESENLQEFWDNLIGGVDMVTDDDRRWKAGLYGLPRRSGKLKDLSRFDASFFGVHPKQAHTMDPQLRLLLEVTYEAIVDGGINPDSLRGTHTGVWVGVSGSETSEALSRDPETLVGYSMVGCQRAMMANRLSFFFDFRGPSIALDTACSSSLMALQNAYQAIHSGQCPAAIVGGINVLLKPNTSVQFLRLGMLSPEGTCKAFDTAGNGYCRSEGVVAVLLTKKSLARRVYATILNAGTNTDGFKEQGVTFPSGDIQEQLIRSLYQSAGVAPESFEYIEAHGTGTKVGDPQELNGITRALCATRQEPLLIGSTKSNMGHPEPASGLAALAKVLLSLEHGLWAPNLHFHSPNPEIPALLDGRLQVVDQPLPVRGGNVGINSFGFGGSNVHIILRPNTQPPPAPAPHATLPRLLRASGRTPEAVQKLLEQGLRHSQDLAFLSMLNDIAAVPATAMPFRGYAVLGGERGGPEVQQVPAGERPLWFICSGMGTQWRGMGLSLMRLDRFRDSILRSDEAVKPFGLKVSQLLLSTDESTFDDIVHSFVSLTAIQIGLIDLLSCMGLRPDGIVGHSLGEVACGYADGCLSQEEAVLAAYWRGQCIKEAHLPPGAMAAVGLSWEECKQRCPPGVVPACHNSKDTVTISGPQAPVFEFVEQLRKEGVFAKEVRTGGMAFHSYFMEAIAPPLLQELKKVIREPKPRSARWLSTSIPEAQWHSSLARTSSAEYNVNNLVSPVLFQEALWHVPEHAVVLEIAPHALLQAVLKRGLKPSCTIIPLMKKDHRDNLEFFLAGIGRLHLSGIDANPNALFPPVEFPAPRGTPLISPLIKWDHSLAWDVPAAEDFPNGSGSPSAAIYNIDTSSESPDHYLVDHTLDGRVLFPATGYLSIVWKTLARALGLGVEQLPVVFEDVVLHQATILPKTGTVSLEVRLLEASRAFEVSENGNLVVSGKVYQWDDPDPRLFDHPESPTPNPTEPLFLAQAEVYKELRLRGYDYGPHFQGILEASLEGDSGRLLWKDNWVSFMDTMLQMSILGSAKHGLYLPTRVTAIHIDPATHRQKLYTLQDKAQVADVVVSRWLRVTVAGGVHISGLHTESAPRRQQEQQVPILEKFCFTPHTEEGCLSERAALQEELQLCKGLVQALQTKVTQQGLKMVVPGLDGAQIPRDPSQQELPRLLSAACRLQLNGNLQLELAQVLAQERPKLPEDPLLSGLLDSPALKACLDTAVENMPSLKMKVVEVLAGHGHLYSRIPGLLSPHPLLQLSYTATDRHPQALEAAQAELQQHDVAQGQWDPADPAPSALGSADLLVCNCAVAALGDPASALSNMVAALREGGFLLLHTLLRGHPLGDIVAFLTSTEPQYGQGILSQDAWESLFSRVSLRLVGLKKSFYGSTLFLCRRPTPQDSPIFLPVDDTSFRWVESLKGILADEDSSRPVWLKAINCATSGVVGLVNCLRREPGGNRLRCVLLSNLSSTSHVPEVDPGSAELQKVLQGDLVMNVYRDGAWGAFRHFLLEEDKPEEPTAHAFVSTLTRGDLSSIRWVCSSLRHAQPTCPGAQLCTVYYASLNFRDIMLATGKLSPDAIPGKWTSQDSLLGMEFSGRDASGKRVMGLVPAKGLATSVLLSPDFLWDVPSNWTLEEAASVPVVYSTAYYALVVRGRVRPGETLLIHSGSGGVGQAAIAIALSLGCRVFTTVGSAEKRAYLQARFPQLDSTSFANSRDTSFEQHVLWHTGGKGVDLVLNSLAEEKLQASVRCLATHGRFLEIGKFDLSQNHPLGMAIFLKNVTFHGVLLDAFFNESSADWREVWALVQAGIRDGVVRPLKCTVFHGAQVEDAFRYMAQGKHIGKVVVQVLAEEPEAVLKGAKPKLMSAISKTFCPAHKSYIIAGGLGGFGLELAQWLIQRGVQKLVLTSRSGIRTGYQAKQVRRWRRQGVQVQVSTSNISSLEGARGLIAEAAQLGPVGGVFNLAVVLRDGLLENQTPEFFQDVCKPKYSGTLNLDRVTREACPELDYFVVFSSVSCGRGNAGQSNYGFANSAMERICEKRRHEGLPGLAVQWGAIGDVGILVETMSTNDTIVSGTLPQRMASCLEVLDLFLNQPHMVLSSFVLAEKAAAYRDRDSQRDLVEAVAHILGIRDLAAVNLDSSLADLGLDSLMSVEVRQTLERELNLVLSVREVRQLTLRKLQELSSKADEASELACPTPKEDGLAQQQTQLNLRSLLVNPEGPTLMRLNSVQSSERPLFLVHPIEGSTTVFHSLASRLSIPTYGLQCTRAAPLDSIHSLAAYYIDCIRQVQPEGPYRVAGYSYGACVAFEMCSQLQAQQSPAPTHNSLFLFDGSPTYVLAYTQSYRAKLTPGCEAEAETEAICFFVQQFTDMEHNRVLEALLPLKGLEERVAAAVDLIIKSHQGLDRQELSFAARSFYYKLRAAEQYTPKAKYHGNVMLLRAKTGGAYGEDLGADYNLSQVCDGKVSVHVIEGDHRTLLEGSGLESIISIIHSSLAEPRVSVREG

Fatty acid synthase [18] = target: T3, Fatty acid synthase; test: inhibition of human FAS-TE enzyme activity – biochemical, endpoint fluorescence intensity, uHTS hits, dose response (AID 624327); type: functional;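 note: fluorescence from hydrolysis of an O-methyl fluorescein acyl ester substrate by the enzyme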
Streptococcus = test: GAS UMAA2166 growth inhibition – luminescence, BacTiterGlo, counter-screen for streptokinase expression inhibitor project, dose response (AID 1915); type: functional, organism-based;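 note: potency for reduction of bacterial viability or growth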
[19] = target: DNA (cytosine-5)-methyltransferase 1 (Homo sapiens, UniProt P26358); test: inhibition of DNA methylation by DNMT1 – biochemical, fluorescent molecular beacon, confirmation (AID 602386); type: functional
[20] = system: Streptococcus sp. 'group A'; test: Streptococcus pyogenes SK(-)GAS viability under kanamycin – luminescence, BacTiterGlo, confirmation, counter-screen for streptokinase expression inhibitor project, dose response (AID 1900); type: functional, organism-based
Streptokinase A = target: T4, Streptokinase A (Streptococcus pyogenes serotype M1, UniProt P10520); test: viability-normalized secreted streptokinase activity reduction – plasminogen activation absorbance, OD405, dose response (AID 1914); type: functional, Streptococcus pyogenes M1 GAS;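 note: secreted streptokinase activity via plasminogen activation per viability signal from cell pellet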
T4 sequence (P10520 whole entry): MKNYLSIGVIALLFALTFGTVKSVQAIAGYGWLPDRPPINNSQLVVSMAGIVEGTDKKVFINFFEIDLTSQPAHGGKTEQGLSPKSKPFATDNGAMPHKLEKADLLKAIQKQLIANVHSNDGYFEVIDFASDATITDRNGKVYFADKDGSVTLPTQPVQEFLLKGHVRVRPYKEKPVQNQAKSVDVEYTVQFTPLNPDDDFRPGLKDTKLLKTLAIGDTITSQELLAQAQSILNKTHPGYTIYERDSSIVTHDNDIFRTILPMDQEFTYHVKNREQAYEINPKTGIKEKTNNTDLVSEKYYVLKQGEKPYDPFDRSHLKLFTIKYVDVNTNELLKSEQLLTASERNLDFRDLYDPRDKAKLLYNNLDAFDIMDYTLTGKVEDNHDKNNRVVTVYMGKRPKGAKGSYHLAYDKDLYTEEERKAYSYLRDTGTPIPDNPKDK

[21] = target: T5, Carboxy-terminal domain RNA polymerase II polypeptide A small phosphatase 1 (Homo sapiens, UniProt Q9GZU7); test: CTDSP1 inhibitors, concentration-response, biochemical, absorbance readout, ultra-high-throughput screen actives (AID 540297); type: functional
T5 sequence (Q9GZU7 whole entry): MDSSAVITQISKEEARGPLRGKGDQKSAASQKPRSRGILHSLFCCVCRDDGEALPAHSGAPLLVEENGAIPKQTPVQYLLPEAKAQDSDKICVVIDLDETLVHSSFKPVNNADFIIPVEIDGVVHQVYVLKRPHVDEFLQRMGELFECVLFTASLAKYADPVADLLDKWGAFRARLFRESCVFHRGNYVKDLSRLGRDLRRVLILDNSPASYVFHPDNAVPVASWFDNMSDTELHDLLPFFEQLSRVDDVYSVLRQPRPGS

Beta-2 adrenergic receptor, sequence (P07550 whole entry): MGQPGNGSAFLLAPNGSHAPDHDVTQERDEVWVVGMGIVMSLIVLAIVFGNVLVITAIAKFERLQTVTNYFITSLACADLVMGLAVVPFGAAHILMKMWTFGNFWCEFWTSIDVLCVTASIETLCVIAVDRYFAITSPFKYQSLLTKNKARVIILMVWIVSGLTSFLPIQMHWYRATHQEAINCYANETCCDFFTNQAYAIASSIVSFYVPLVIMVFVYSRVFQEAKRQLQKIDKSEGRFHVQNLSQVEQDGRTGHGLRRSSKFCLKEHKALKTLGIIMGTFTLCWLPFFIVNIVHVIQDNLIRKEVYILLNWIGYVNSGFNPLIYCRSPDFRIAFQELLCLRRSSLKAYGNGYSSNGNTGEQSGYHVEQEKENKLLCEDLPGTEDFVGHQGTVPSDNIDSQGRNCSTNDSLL

CCN(c1ccc2c(c1)OCO2)S(=O)(=O)c1cc(Br)cc2c1N(C(C)=O)CC2
EC50 [1]: 10.5 µM (inactive)
EC50 [2]: > 60 µM (not active)
EC50 [3]: 0.891 µM (active)

CCN1C(=O)C2C(c3ccccc3F)NC(Cc3ccc(O)cc3)(C(=O)OC)C2C1=O (stereo not drawn)
AC50 [4]: 10.2 µM (active)

COc1cccc(CSc2nc3ccccc3cc2C=O)c1
EC50 [5]: 16.6 µM (active)
EC50 (BJ [6]): 21.6 µM (active)
EC50 (BJ [7]): 0.301 µM (active)
EC50 (BJ [8]): 1.17 µM (active)
EC50 (BJ [9]): 0.944 µM (inconclusive)
EC50 [10]: 17.7 µM (active)
EC50 [11]: 1.27 µM (active)
EC50 [12]: 13.7 µM (active)

O=C(NCc1ccccc1C(F)(F)F)c1cccc2c1C(=O)c1ccc(N3CCC(N4CCCCC4)CC3)cc1S2(=O)=O
AC50 [13]: 9.77 µM (active)
IC50 (CHO): 8.71 µM (active)
IC50 (Beta Lactamase): 5.89 µM (active)
AC50 [14]: 21.2 µM (active)

CCC(C)C(=O)OCC1(c2ccc(C)cc2OC(=O)C(C)C)CO1 (stereo not drawn)
EC50 (BJ [7]): 8.58 µM (active)

Cc1c(-n2cc(C(=O)c3ccccc3O)cc(C#N)c2=O)c(=O)n(-c2ccccc2)n1C
AC50 [4]: 5.89 µM (active)
EC50 [15]: > 260 µM (inactive)
EC50 [16]: 8.01 µM (active)

CCN1CC2(COC(=O)c3ccccc3N)CCC(OC)C34C5CC6C(OC)CC(O)(C5C6OC)C(O)(C(OC)C23)C14 (stereo not drawn)
AC50 [4]: 19.5 µM (active)

Cc1ccc(C(=O)N/C(=C/c2ccc(-c3ccc([N+](=O)[O-])cc3)o2)C(=O)NCCCN(C)C)cc1
EC50 [5]: > 120 µM (not active)
IC50 (CHO): 22.9 µM (inactive)
IC50 (Beta Lactamase): 6.55 µM (active)
EC50 [10]: > 120 µM (not active)
IC50 (Fatty acid synthase [17]): 5.71 µM (active)
EC50 [12]: > 120 µM (not active)
IC50 (Fatty acid synthase [18]): 13.8 µM (active)

CC(=O)OCC1=C(C(=O)O)N2C(=O)C(NC(=O)c3ccc(COc4cccc(Cl)c4Cl)o3)C2SC1 (stereo not drawn)
EC50 (Streptococcus): 8.94 µM (active)
IC50 [19]: 8.67 µM (active)
EC50 [20]: 5.04 µM (active)
EC50 (Streptokinase A): 12.6 µM (active)
IC50 [21]: 5.07 µM (active)
